Experimental data as given in PubChem BioAssay AID2060905 (Molecular Pharmacology Branch, DTP, NCI, 2025).
pIC50: −log10 of the molar value.

Test system: 282377-053-R-J1-PDC complex spheroid viability
Assay: Anticancer human tumor 282377-053-R-J1-PDC patient-derived colon adenocarcinoma cell line growth inhibition [RAS]
Conditions: for pIC50: curve of first compound; for viability, T/C: stronger effect = lower value; active means viability on the fitted dose curve at most 10% of control; inactive means the rest
Procedure, shortened: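 Tumour cells grown as complex spheroids with HUVEC endothelial cells and mesenchymal stem cells, treated with RAS pathway inhibitor combinations. Each agent spans half-log steps from near clinical Cmax, or 10 microM where Cmax is unknown.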

[1] = second compound 0.000949 µM, first compound 0.0316 µM
[2] = second compound 0.000949 µM, first compound 0.1 µM
[3] = second compound 0.000949 µM, first compound 0.316 µM
[4] = second compound 0.000949 µM, first compound 1 µM
[5] = second compound 0.000949 µM, first compound 3.16 µM
[6] = second compound 0.000949 µM, first compound 10 µM
[7] = second compound 0.003 µM, first compound 0.0316 µM
[8] = second compound 0.003 µM, first compound 0.1 µM
[9] = second compound 0.003 µM, first compound 0.316 µM
[10] = second compound 0.003 µM, first compound 1 µM
[11] = second compound 0.003 µM, first compound 3.16 µM
[12] = second compound 0.003 µM, first compound 10 µM
[13] = second compound 0.00949 µM, first compound 0.0316 µM
[14] = second compound 0.00949 µM, first compound 0.1 µM
[15] = second compound 0.00949 µM, first compound 0.316 µM
[16] = second compound 0.00949 µM, first compound 1 µM
[17] = second compound 0.00949 µM, first compound 3.16 µM
[18] = second compound 0.00949 µM, first compound 10 µM
[19] = second compound 0.03 µM, first compound 0.0316 µM
[20] = second compound 0.03 µM, first compound 0.1 µM
[21] = second compound 0.03 µM, first compound 0.316 µM
[22] = second compound 0.03 µM, first compound 1 µM
[23] = second compound 0.03 µM, first compound 3.16 µM
[24] = second compound 0.03 µM, first compound 10 µM
[25] = second compound 0.0949 µM, first compound 0.0316 µM
[26] = second compound 0.0949 µM, first compound 0.1 µM
[27] = second compound 0.0949 µM, first compound 0.316 µM
[28] = second compound 0.0949 µM, first compound 1 µM
[29] = second compound 0.0949 µM, first compound 3.16 µM
[30] = second compound 0.0949 µM, first compound 10 µM
[31] = second compound 0.3 µM, first compound 0.0316 µM
[32] = second compound 0.3 µM, first compound 0.1 µM
[33] = second compound 0.3 µM, first compound 0.316 µM
[34] = second compound 0.3 µM, first compound 1 µM
[35] = second compound 0.3 µM, first compound 3.16 µM
[36] = second compound 0.3 µM, first compound 10 µM
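Further: spheroids exposed to agents for seven days before readout.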
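Wherever viability, T/C is given: luminescence viability as percent of DMSO vehicle control wells.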

CC(=O)OC12COC1CC(O)C1(C)C(=O)C(O)C3=C(C)C(OC(=O)C(O)C(NC(=O)OC(C)(C)C)c4ccccc4)CC(O)(C(OC(=O)c4ccccc4)C21)C3(C)C (stereo not given) + CCn1c(-c2cc(N3CCN(C)CC3)cnc2C(C)OC)c2c3cc(ccc31)-c1csc(n1)CC(NC(=O)C1CC1C)C(=O)N1CCCC(N1)C(=O)OCC(C)(C)C2
> 7.50: pIC50 (second compound 0.000949 µM) | pIC50 (second compound 0.003 µM) | pIC50 (second compound 0.00949 µM) | pIC50 (second compound 0.03 µM) | pIC50 (second compound 0.0949 µM) | pIC50 (second compound 0.3 µM)
inactive: viability, T/C [1] 41.2% | viability, T/C [2] 48.6% | viability, T/C [3] 44.2% | viability, T/C [4] 52% | viability, T/C [5] 61% | viability, T/C [6] 97.3% | viability, T/C [7] 50.1% | viability, T/C [8] 38.4% | viability, T/C [9] 45.5% | viability, T/C [10] 55.2% | viability, T/C [11] 52.2% | viability, T/C [12] 83.2% | viability, T/C [13] 50.1% | viability, T/C [14] 42.6% | viability, T/C [15] 52.5% | viability, T/C [16] 38.7% | viability, T/C [17] 72.2% | viability, T/C [18] 91.9% | viability, T/C [19] 36.1% | viability, T/C [20] 46% | viability, T/C [21] 41.9% | viability, T/C [22] 58.2% | viability, T/C [23] 60.5% | viability, T/C [24] 96.2% | viability, T/C [25] 42% | viability, T/C [26] 49.4% | viability, T/C [27] 46.3% | viability, T/C [28] 40.2% | viability, T/C [29] 77.5% | viability, T/C [30] 77.6% | viability, T/C [31] 43.1% | viability, T/C [32] 54.1% | viability, T/C [33] 47.9% | viability, T/C [34] 56.3% | viability, T/C [35] 79.6% | viability, T/C [36] 100%

CCC(CC)c1cc(NC2CCC(N)C2)n2nccc2n1 (stereo not given) + CCn1c(-c2cc(N3CCN(C)CC3)cnc2C(C)OC)c2c3cc(ccc31)-c1csc(n1)CC(NC(=O)C1CC1C)C(=O)N1CCCC(N1)C(=O)OCC(C)(C)C2
5.74: pIC50 (second compound 0.3 µM)
5.75: pIC50 (second compound 0.0949 µM)
5.77: pIC50 (second compound 0.000949 µM)
5.76: pIC50 (second compound 0.00949 µM)
5.83: pIC50 (second compound 0.003 µM)
5.82: pIC50 (second compound 0.03 µM)
inactive: viability, T/C [1] 85.5% | viability, T/C [2] 98.8% | viability, T/C [3] 98.5% | viability, T/C [4] 84.1% | viability, T/C [5] 11.1% | viability, T/C [7] 89.4% | viability, T/C [8] 86.5% | viability, T/C [9] 81.2% | viability, T/C [10] 70.5% | viability, T/C [11] 10.4% | viability, T/C [13] 81.9% | viability, T/C [14] 95.3% | viability, T/C [15] 72% | viability, T/C [16] 90.7% | viability, T/C [17] 10.8% | viability, T/C [19] 76% | viability, T/C [20] 82% | viability, T/C [21] 85.7% | viability, T/C [22] 71.2% | viability, T/C [23] 13.2% | viability, T/C [25] 95.7% | viability, T/C [26] 87.2% | viability, T/C [27] 76.1% | viability, T/C [28] 88.6% | viability, T/C [29] 13% | viability, T/C [31] 94.7% | viability, T/C [32] 78% | viability, T/C [33] 86.1% | viability, T/C [34] 94.9% | viability, T/C [35] 13.4%
active: viability, T/C [6] 6.68% | viability, T/C [12] 3.1% | viability, T/C [18] 4.36% | viability, T/C [24] 7.45% | viability, T/C [30] 2.75% | viability, T/C [36] 3.35%

Cc1nc(N2CCC3(CC2)COC(C)C3N)c(CO)nc1Sc1ccnc(N)c1Cl (stereo not given) + CCn1c(-c2cc(N3CCN(C)CC3)cnc2C(C)OC)c2c3cc(ccc31)-c1csc(n1)CC(NC(=O)C1CC1C)C(=O)N1CCCC(N1)C(=O)OCC(C)(C)C2
< 5.00: pIC50 (second compound 0.000949 µM) | pIC50 (second compound 0.003 µM) | pIC50 (second compound 0.00949 µM) | pIC50 (second compound 0.03 µM) | pIC50 (second compound 0.0949 µM) | pIC50 (second compound 0.3 µM)
inactive: viability, T/C [1] 88.7% | viability, T/C [2] 92.8% | viability, T/C [3] 89.5% | viability, T/C [4] 87.7% | viability, T/C [5] 76.8% | viability, T/C [6] 96.8% | viability, T/C [7] 80.6% | viability, T/C [8] 94.4% | viability, T/C [9] 78.7% | viability, T/C [10] 80.5% | viability, T/C [11] 94.8% | viability, T/C [12] 96.5% | viability, T/C [13] 82.7% | viability, T/C [14] 64.8% | viability, T/C [15] 74.6% | viability, T/C [16] 105% | viability, T/C [17] 74.5% | viability, T/C [18] 94% | viability, T/C [19] 80.6% | viability, T/C [20] 82.2% | viability, T/C [21] 90.1% | viability, T/C [22] 85.3% | viability, T/C [23] 88% | viability, T/C [24] 91.1% | viability, T/C [25] 69.7% | viability, T/C [26] 93.5% | viability, T/C [27] 88.9% | viability, T/C [28] 78.6% | viability, T/C [29] 95.5% | viability, T/C [30] 93.8% | viability, T/C [31] 80.5% | viability, T/C [32] 88.8% | viability, T/C [33] 91.1% | viability, T/C [34] 105% | viability, T/C [35] 112% | viability, T/C [36] 89.8%

NC1c2ccccc2OC12CCN(c1cnc3c(N4CCCc5ncccc54)n[nH]c3n1)CC2 (stereo not given) + CCn1c(-c2cc(N3CCN(C)CC3)cnc2C(C)OC)c2c3cc(ccc31)-c1csc(n1)CC(NC(=O)C1CC1C)C(=O)N1CCCC(N1)C(=O)OCC(C)(C)C2
inactive: viability, T/C [1] 96.6% | viability, T/C [2] 102% | viability, T/C [3] 87.7% | viability, T/C [4] 99.9% | viability, T/C [5] 106% | viability, T/C [6] 140% | viability, T/C [7] 97.4% | viability, T/C [8] 102% | viability, T/C [9] 96.3% | viability, T/C [10] 99% | viability, T/C [11] 93.7% | viability, T/C [12] 98.6% | viability, T/C [13] 135% | viability, T/C [14] 96.2% | viability, T/C [15] 111% | viability, T/C [16] 90.8% | viability, T/C [17] 100% | viability, T/C [18] 107% | viability, T/C [19] 115% | viability, T/C [20] 109% | viability, T/C [21] 101% | viability, T/C [22] 123% | viability, T/C [23] 122% | viability, T/C [24] 97% | viability, T/C [25] 108% | viability, T/C [26] 118% | viability, T/C [27] 100% | viability, T/C [28] 107% | viability, T/C [29] 111% | viability, T/C [30] 112% | viability, T/C [31] 126% | viability, T/C [32] 152% | viability, T/C [33] 105% | viability, T/C [34] 117% | viability, T/C [35] 110% | viability, T/C [36] 106%
< 5.00: pIC50 (second compound 0.000949 µM) | pIC50 (second compound 0.003 µM) | pIC50 (second compound 0.00949 µM) | pIC50 (second compound 0.03 µM) | pIC50 (second compound 0.0949 µM) | pIC50 (second compound 0.3 µM)

Nc1ccn(C2OC(CO)C(O)C2(F)F)c(=O)n1 (stereo not given) + CCn1c(-c2cc(N3CCN(C)CC3)cnc2C(C)OC)c2c3cc(ccc31)-c1csc(n1)CC(NC(=O)C1CC1C)C(=O)N1CCCC(N1)C(=O)OCC(C)(C)C2
inactive: viability, T/C (second compound 0.000949 µM, first compound 0.00316 µM) 107% | viability, T/C (second compound 0.000949 µM, first compound 0.01 µM) 95.1% | viability, T/C [1] 120% | viability, T/C [2] 107% | viability, T/C [3] 101% | viability, T/C [4] 66.8% | viability, T/C (second compound 0.003 µM, first compound 0.00316 µM) 90% | viability, T/C (second compound 0.003 µM, first compound 0.01 µM) 110% | viability, T/C [7] 106% | viability, T/C [8] 111% | viability, T/C [9] 93.8% | viability, T/C [10] 64.6% | viability, T/C (second compound 0.00949 µM, first compound 0.00316 µM) 116% | viability, T/C (second compound 0.00949 µM, first compound 0.01 µM) 95.9% | viability, T/C [13] 129% | viability, T/C [14] 107% | viability, T/C [15] 96.4% | viability, T/C [16] 69% | viability, T/C (second compound 0.03 µM, first compound 0.00316 µM) 104% | viability, T/C (second compound 0.03 µM, first compound 0.01 µM) 100% | viability, T/C [19] 108% | viability, T/C [20] 115% | viability, T/C [21] 86.7% | viability, T/C [22] 71.5% | viability, T/C (second compound 0.0949 µM, first compound 0.00316 µM) 104% | viability, T/C (second compound 0.0949 µM, first compound 0.01 µM) 95.2% | viability, T/C [25] 100% | viability, T/C [26] 106% | viability, T/C [27] 123% | viability, T/C [28] 72.5% | viability, T/C (second compound 0.3 µM, first compound 0.00316 µM) 120% | viability, T/C (second compound 0.3 µM, first compound 0.01 µM) 94.2% | viability, T/C [31] 129% | viability, T/C [32] 131% | viability, T/C [33] 118% | viability, T/C [34] 108%
< 6.00: pIC50 (second compound 0.000949 µM) | pIC50 (second compound 0.003 µM) | pIC50 (second compound 0.00949 µM) | pIC50 (second compound 0.03 µM) | pIC50 (second compound 0.0949 µM) | pIC50 (second compound 0.3 µM)
